# In ChEMBL document CHEMBL6109124, “Identification of effective anti-osteosarcoma agents via screening of an in-house NQO1-targeted compound library” (Bioorg Med Chem, 2025):
# Key:
# HOS-TE85 [1] = experiment: Cytotoxicity against human MNNG cells assessed as cell growth inhibition at 1 uM measured after 72 hrs by MTT assay relative to control; assay type: functional; settings: read-out: GI
# HOS-TE85 [2] = experiment: Cytotoxicity against human MNNG cells assessed as cell growth inhibition measured after 72 hrs by MTT assay; assay type: functional, cell-based; settings: HOS-TE85, 72 h
# [3] = Cytotoxicity against HUVEC assessed as cell growth inhibition measured after 72 hrs by MTT assay; assay type: toxicity, cell-based; settings: human, HUVEC cells
# HOS-TE85 [4] = experiment: Cytotoxicity against human MNNG cells assessed as cell growth inhibition at 10 uM measured after 72 hrs by MTT assay relative to control; assay type: functional; settings: read-out: GI
# [5] = Selectivity index, ratio of IC50 for cytotoxicity against HUVEC to IC50 for cytotoxicity against human MNNG cells; assay type: toxicity, cell-based; settings: HUVEC and human MNNG cells, read-out: Ratio IC50
SMILES,inhibition of growth at 1 µM (HOS-TE85 [1]),IC50 (HOS-TE85 [2]),IC50 at 72 h [3],inhibition of growth at 10 µM (HOS-TE85 [4]),selectivity ratio [5]
N#Cc1nc2c(nc1C#N)-c1cc(F)c(F)cc1/C2=N\NC1CCCCC1,31.2%,2.22 µM,17.2 µM,90.4%,7.73
Cc1ccc2c(c1)-c1nc(C#N)c(C#N)nc1C2=O,35.4%,1.85 µM,3.85 µM,99.9%,2.08
